Measured values reported in PubChem BioAssay AID1963842 (Molecular Pharmacology Branch, DTP, NCI, 2024).

Tested on: 677734-321-R-J1-PDC complex spheroid viability
Test: Anticancer human tumor 677734-321-R-J1-PDC patient-derived soft tissue sarcoma cell line growth inhibition [POLQ]
Settings: for IC50: curve of first compound; for viability, T/C: stronger effect = lower value
Experimental: Multicellular complex tumor spheroid response to Polymerase (POL) inhibitors (novobiocin, ART-558, RP6685) in combination with a variety of drugs and investigational agents in selected tumor cell lines
The POL inhibitors (novobiocin, ART-558, and RP6685) were evaluated both individually and in combination with standard of care and investigational anticancer small molecules within a complex spheroid model of solid tumors. . Complex spheroids include a stromal component modeled by human endothelial cells (HUVEC) and fibroblasts modeled by human mesenchymal stem cells (MSCs). The concentration ranges selected for each drug and investigational agent were based upon clinically achievable concentrations if the clinical Cmax of the agent was known.
Compounds. The drugs and investigational agents: novobiocin (NSC847541), ART-558 (NSC835418), RP-6685 (NSC848927), peposertib (NSC802822), ceralasertib (NSC780249), elimusertib (NSC800525), camonsertib (NSC841442), AZD-1390 (NSC803789), olaparib (NSC753686), talazoparib (NSC767125), rucaparib (NSC756644), sotorasib (NSC818433), MRTX-1133 (NSC836407), SN-38 (NSC673596), topotecan (NSC609699), epotoside (NSC141540), doxorubicin (NSC123127), gemcitabine (NSC613327), 5-fluorouracil (NSC19893), paclitaxel (NSC125973), vemurafenib (NSC761431), MSA-2 (NSC828583), SN-011 (NSC837082), adavosertib (NSC754352), prexasertib (NSC758257), carboplatin (NSC241240) and oxaliplatin (NSC266046), were obtained from the National Cancer Institute (NCI) Developmental Therapeutics Program Chemical Repository (21). The FDA-approved anticancer drug set is available from the Developmental Therapeutics Program at https://dtp.cancer.gov/organization/dscb/obtaining/. […] The stock solutions were prepared in dimethyl sulfoxide (DMSO, Sigma-Aldrich, St. Louis, MO, cat. D2650), except for the platinum compounds which were prepared in saline (Quality Biological, Gaithersburg, MD, cat. 114-055-101), at 800-fold the tested concentration and stored at -70 degrees C prior to their use. All drugs and investigational agents were tested over a range starting from a high concentration at or near the clinical Cmax and decreasing in half-log increments. If the clinical Cmax for an agent had not been determined, the highest concentration tested was 10 microM, except for SN-38, which was tested at a high concentration of 1 microM.
Cell Culture. All cells were maintained in an incubator at 37 degrees C and 5% CO2 with 95% humidity. The PDC lines were cultured according to standard operating procedures established by the NCI PDMR (https://pdmr.cancer.gov). Table 3 of the manuscript, lists the cell lines along with the number of the three cell types plated to form the mct-spheroids and media for tumor cell growth. After thawing, all PDC lines, except 997537-175-T-J1-PDC and 415267-285-R-J2-PDC, were cultured in Matrigel-coated flasks prepared with a working solution of 1X Ham's F-12 nutrient mix, without supplementation (Thermo Fisher Scientific, cat. 11765054), 100 U/mL penicillin-streptomycin (Thermo Fisher Scientific, cat. 15140122), and 2.5% Matrigel (Corning Inc., Corning, NY, cat. 354248) for the first three passages. The two PDC lines 997537-175-T-J1-PDC and 415267-285-R-J2-PDC were cultured on uncoated flasks. The 857933-349-R-J2-PDC line was cultured in 6C/Colon 1B media containing advanced DMEM/F-12 (Thermo Fisher Scientific, cat. 12634028), 10 mM HEPES (Thermo Fisher Scientific, cat. 15630080), 1X GlutaMAX supplement (Thermo Fisher Scientific, cat. 35050061), 0.1 mg/mL primocin (InvivoGen, San Diego, CA, cat. ant-pm-2), 10% defined fetal bovine serum, heat inactivated (HyClone Laboratories Inc., Logan, UT, cat. SH30070.03HI), 50% L-WRN conditioned media (ATCC, cat. CRL-3276), 1.25 mM N-Acetyl-L-cysteine (Sigma-Aldrich, cat. A9165), 10 mM nicotinamide (Sigma-Aldrich, cat. N0636), 1X B-27 supplement (Thermo Fisher Scientific, cat. 17504044), 1X N-2 supplement (Thermo Fisher Scientific, cat. […]

[1] = second compound 0.0316 µM, first compound 0.00316 µM
[2] = second compound 0.0316 µM, first compound 0.01 µM
[3] = second compound 0.0316 µM, first compound 0.0316 µM
[4] = second compound 0.0316 µM, first compound 0.1 µM
[5] = second compound 0.1 µM, first compound 0.00316 µM
[6] = second compound 0.1 µM, first compound 0.01 µM
[7] = second compound 0.1 µM, first compound 0.0316 µM
[8] = second compound 0.1 µM, first compound 0.1 µM
[9] = second compound 0.316 µM, first compound 0.00316 µM
[10] = second compound 0.316 µM, first compound 0.01 µM
[11] = second compound 0.316 µM, first compound 0.0316 µM
[12] = second compound 0.316 µM, first compound 0.1 µM
[13] = second compound 1 µM, first compound 0.00316 µM
[14] = second compound 1 µM, first compound 0.01 µM
[15] = second compound 1 µM, first compound 0.0316 µM
[16] = second compound 1 µM, first compound 0.1 µM
[17] = second compound 3.16 µM, first compound 0.00316 µM
[18] = second compound 3.16 µM, first compound 0.01 µM
[19] = second compound 3.16 µM, first compound 0.0316 µM
[20] = second compound 3.16 µM, first compound 0.1 µM
[21] = second compound 10 µM, first compound 0.00316 µM
[22] = second compound 10 µM, first compound 0.01 µM
[23] = second compound 10 µM, first compound 0.0316 µM
[24] = second compound 10 µM, first compound 0.1 µM
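Further: spheroids exposed to compounds for one week.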
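Wherever viability, T/C is given: 100% = vehicle DMSO treated spheroids.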

SMILES: CC[C@@]1(O)C(=O)OCc2c1cc1n(c2=O)Cc2cc3c(CN(C)C)c(O)ccc3nc2-1 + COC1C(OC(N)=O)C(O)C(Oc2ccc3c(O)c(NC(=O)c4ccc(O)c(CC=C(C)C)c4)c(=O)oc3c2C)OC1(C)C
- IC50 (second compound 0.0316 µM): 25.7 nM
- IC50 (second compound 0.1 µM): 24.6 nM
- IC50 (second compound 0.316 µM): 26.4 nM
- IC50 (second compound 1 µM): 23.6 nM
- IC50 (second compound 3.16 µM): 25.2 nM
- IC50 (second compound 10 µM): 28.8 nM
- viability, T/C (second compound 0.0316 µM, first compound 0.000316 µM): 104%
- viability, T/C (second compound 0.0316 µM, first compound 0.001 µM): 112%
- viability, T/C [1]: 105%
- viability, T/C [2]: 105%
- viability, T/C [3]: 37.1%
- viability, T/C [4]: 16.8%
- viability, T/C (second compound 0.1 µM, first compound 0.000316 µM): 109%
- viability, T/C (second compound 0.1 µM, first compound 0.001 µM): 108%
- viability, T/C [5]: 109%
- viability, T/C [6]: 100%
- viability, T/C [7]: 33.8%
- viability, T/C [8]: 18.8%
- viability, T/C (second compound 0.316 µM, first compound 0.000316 µM): 105%
- viability, T/C (second compound 0.316 µM, first compound 0.001 µM): 117%
- viability, T/C [9]: 94.2%
- viability, T/C [10]: 103%
- viability, T/C [11]: 39.3%
- viability, T/C [12]: 16.3%
- viability, T/C (second compound 1 µM, first compound 0.000316 µM): 113%
- viability, T/C (second compound 1 µM, first compound 0.001 µM): 109%
- viability, T/C [13]: 106%
- viability, T/C [14]: 106%
- viability, T/C [15]: 29.3%
- viability, T/C [16]: 15.4%
- viability, T/C (second compound 3.16 µM, first compound 0.000316 µM): 120%
- viability, T/C (second compound 3.16 µM, first compound 0.001 µM): 108%
- viability, T/C [17]: 110%
- viability, T/C [18]: 98.2%
- viability, T/C [19]: 34.5%
- viability, T/C [20]: 16%
- viability, T/C (second compound 10 µM, first compound 0.000316 µM): 109%
- viability, T/C (second compound 10 µM, first compound 0.001 µM): 106%
- viability, T/C [21]: 106%
- viability, T/C [22]: 98.9%
- viability, T/C [23]: 45.6%
- viability, T/C [24]: 18.7%

SMILES: CCc1c2c(nc3ccc(O)cc13)-c1cc3c(c(=O)n1C2)COC(=O)[C@]3(O)CC + COC1C(OC(N)=O)C(O)C(Oc2ccc3c(O)c(NC(=O)c4ccc(O)c(CC=C(C)C)c4)c(=O)oc3c2C)OC1(C)C
- IC50 (second compound 0.0316 µM): < 3.16 nM
- IC50 (second compound 0.1 µM): < 3.16 nM
- IC50 (second compound 0.316 µM): < 3.16 nM
- IC50 (second compound 1 µM): < 3.16 nM
- IC50 (second compound 3.16 µM): < 3.16 nM
- IC50 (second compound 10 µM): < 3.16 nM
- viability, T/C [1]: 28.4%
- viability, T/C [2]: 11.8%
- viability, T/C [3]: 4.37%
- viability, T/C [4]: 3.1%
- viability, T/C (second compound 0.0316 µM, first compound 0.316 µM): 2.06%
- viability, T/C (second compound 0.0316 µM, first compound 1 µM): 1.39%
- viability, T/C [5]: 30%
- viability, T/C [6]: 13.9%
- viability, T/C [7]: 5.1%
- viability, T/C [8]: 2.75%
- viability, T/C (second compound 0.1 µM, first compound 0.316 µM): 2%
- viability, T/C (second compound 0.1 µM, first compound 1 µM): 1.2%
- viability, T/C [9]: 28.4%
- viability, T/C [10]: 12%
- viability, T/C [11]: 4.66%
- viability, T/C [12]: 2.52%
- viability, T/C (second compound 0.316 µM, first compound 0.316 µM): 6.96%
- viability, T/C (second compound 0.316 µM, first compound 1 µM): 2.86%
- viability, T/C [13]: 30.1%
- viability, T/C [14]: 13.1%
- viability, T/C [15]: 4.67%
- viability, T/C [16]: 2.88%
- viability, T/C (second compound 1 µM, first compound 0.316 µM): 2.98%
- viability, T/C (second compound 1 µM, first compound 1 µM): 1.68%
- viability, T/C [17]: 24.4%
- viability, T/C [18]: 14.4%
- viability, T/C [19]: 6.11%
- viability, T/C [20]: 3.15%
- viability, T/C (second compound 3.16 µM, first compound 0.316 µM): 2.62%
- viability, T/C (second compound 3.16 µM, first compound 1 µM): 1.16%
- viability, T/C [21]: 32%
- viability, T/C [22]: 12.5%
- viability, T/C [23]: 4.86%
- viability, T/C [24]: 3.88%
- viability, T/C (second compound 10 µM, first compound 0.316 µM): 2.05%
- viability, T/C (second compound 10 µM, first compound 1 µM): 1.75%
